Patent US12319689B2, “Methyl- and trifluoromethyl-containing disubstituted sulfonamide selective BCL-2 inhibitor” (CHIA TAI TIANQING PHARMACEUTICAL GROUP CO., LTD., priority 2019, dated 2025)

What was measured:
RS4;11 cells = assay: Inhibition of proliferation of RS4;11 human acute lymphocytic leukemia cells (CCK-8); format: cell-based; details: 72 h compound exposure, CCK-8, 5% serum
Description: RS4;11 cells (from ATCC) in logarithmic growth phase and good cell condition were added to a centrifuge tube and centrifuged at 1500 rpm for 3 min in a low speed centrifuge. The supernatant was discarded, and 5 mL of complete medium (RPMI basic medium+10% FBS) was added using a pipette for cell resuspension. The cells were counted using a cell counter, diluted with complete medium to a cell density of 2×10^5 cells/mL, and an equivalent amount of RPMI basic medium was added to adjust the serum concentration to 5% and the cell density to 1×10^5 cells/mL for plate seeding. The cells were seeded on a 96-well plate at 100 μL/well using a pipettor, and incubated in an incubator at 37° C., 5% CO2 with saturated humidity. After 24 h of incubation, compounds were loaded using a nanoliter pipettor, 2 duplicate wells were set for each concentration, and cells without compound were used as negative controls. […] Inhibition rate (%)=(mean value of negative control group−mean value of experimental group)/(mean value of negative control group−mean value of blank group)×100%. A dose-response curve was fitted by four-parameter analysis, with the logarithm of compound concentration serving as abscissa and inhibition rate serving as ordinate, so that IC50 was calculated (Table 1).

BCL-2/BAK = target: T1, BCL-2/BAK (Homo sapiens, UniProt P10415); assay: Inhibitory activity for BCL-2/BAK binding (Cisbio BCL-2/BAK (BH3) binding assay kit)
T1 construct: purchased Cisbio 63ADK000CB01PEG
T1 sequence (P10415 whole entry): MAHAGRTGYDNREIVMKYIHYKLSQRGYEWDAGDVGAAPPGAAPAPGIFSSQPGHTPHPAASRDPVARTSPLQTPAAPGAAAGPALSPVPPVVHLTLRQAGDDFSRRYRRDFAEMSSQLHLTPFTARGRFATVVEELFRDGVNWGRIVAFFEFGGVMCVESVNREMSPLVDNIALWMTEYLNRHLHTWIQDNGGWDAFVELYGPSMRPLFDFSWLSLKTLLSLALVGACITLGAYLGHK
Description: 500 nM Tag1-BCL-2 protein stock solution and 20 μM Tag2-BAK protein stock solution were diluted to 5 nM and 120 nM respectively with dilution buffer in kit (name: BCL-2/BAK (BH3) BINDING ASSAY KITS, cat. No.: 63ADK000CB01PEG, from Cisbio). 5 μL of Tag1-BCL-2 protein diluent was added to each well, then test compounds dissolved with DMSO were added to the wells with a nanoliter pipettor, allowing the final compound concentrations to be 200 nM to 0.0488 nM (4-fold gradient for 7 concentrations in total). Blank control wells (without enzyme) and negative control wells (with enzyme, plus vehicle DMSO) were set, and 2 replicate wells were set. Finally, 5 μL of Tag2-BAK protein diluent was added to each well, and the mixture was mixed well by centrifugation and incubated at 25° C. for 15 min. 100× anti-Tag1-Eu^3+ and 100× anti-Tag2-XL665 were both diluted to 1× working concentration with the detection buffer in the kit. Anti-Tag1-Eu^3+ and anti-Tag2-XL665 were mixed well in a 1:1 ratio, and the mixture was added to wells at 5 μL/well, and incubated at 25° C. for 2 h or more. The plate was read using a PE Envision multi-functional microplate reader ([…], emission: 665 nm) and IC50 (shown in Table 2) was calculated by four-parameter fitting.

BCL-XL/BAK = target: T2, BCL-XL/BAK (Homo sapiens, UniProt Q07817); assay: Inhibitory activity for BCL-XL/BAK binding (Cisbio BCL-XL/BAK (BH3) binding assay kit)
T2 construct: purchased Cisbio 63ADK000CB04PEG
T2 sequence (Q07817 whole entry): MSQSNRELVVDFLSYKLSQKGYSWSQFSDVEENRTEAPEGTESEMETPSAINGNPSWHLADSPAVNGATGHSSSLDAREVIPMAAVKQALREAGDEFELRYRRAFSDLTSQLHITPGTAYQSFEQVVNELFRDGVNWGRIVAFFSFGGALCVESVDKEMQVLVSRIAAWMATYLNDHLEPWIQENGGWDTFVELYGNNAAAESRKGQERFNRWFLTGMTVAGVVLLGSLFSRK
Description: 300 nM Tag1-BCL-XL protein stock solution and 10 μM Tag2-BAK protein stock solution were diluted to 2 nM and 80 nM respectively with dilution buffer in kit (name: BCL-XL/BAK (BH3) BINDING ASSAY KITS, cat. No.: 63ADK000CB04PEG, from Cisbio). 5 μL of Tag1-BCL-XL protein diluent was added to each well, then different test compounds dissolved with DMSO were added to the wells with a nanoliter pipettor, allowing the final compound concentrations to be 2000 nM to 0.488 nM (4-fold gradient for 7 concentrations in total). Blank control wells (without enzyme) and negative control wells (with enzyme, plus vehicle DMSO) were set, and 2 replicate wells were set. Finally, 5 μL of Tag2-BAK protein diluent was added to each well, and the mixture was mixed well by centrifugation and incubated at 25° C. for 15 min. 100× anti-Tag1-Eu^3+ and 100× anti-Tag2-XL665 were both diluted to 1× working concentration with the detection buffer in the kit. Anti-Tag1-Eu^3+ and anti-Tag2-XL665 were mixed well in a 1:1 ratio, and the mixture was added to wells at 5 μL/well, and incubated at 25° C. for 2 h or more. The plate was read using a PE Envision multi-functional microplate reader ([…], emission: 665 nm) and IC50 (shown in Table 2) was calculated by four-parameter fitting.

Row | SMILES | IC50 (RS4;11 cells) | IC50 (BCL-2/BAK) | IC50 (BCL-XL/BAK)
1 | Cc1cc(C(F)(F)F)ccc1C1=C(CN2CCN(c3ccc(C(=O)NS(=O)(=O)c4ccc(NC[C@@H]5CN(C(=O)C(C)C)CCO5)c([N+](=O)[O-])c4)c(Oc4cnc5[nH]ccc5c4)c3)CC2)CCC(C)(C)C1 [Compound 21-1, (R)-4-(4-{[2-(2-methyl-4-trifluoromethylphenyl)-4,4-dimethylcyclohex-1-enyl]methyl}-piperazin-1-yl)-N-({3-nitro-4-[((4-isobutyrylmorpholin-2-yl)methyl)amino]phenyl}sulfonyl)-2-(1H-pyrrolo[2,3-b]pyridin-5-yloxy)-benzamide] | 5.5 nM | 0.72 nM | 115 nM
2 | Cc1cc(C(F)(F)F)ccc1C1=C(CN2CCN(c3ccc(C(=O)NS(=O)(=O)c4ccc(NC[C@H]5CN(S(C)(=O)=O)CCO5)c([N+](=O)[O-])c4)c(Oc4cnc5[nH]ccc5c4)c3)CC2)CCC(C)(C)C1 [Compound 22-1, (S)-4-(4-{[2-(2-methyl-4-trifluoromethylphenyl)-4,4-dimethylcyclohex-1-enyl]methyl}-piperazin-1-yl)-N-({3-nitro-4-[((4-(methylsulfonyl)morpholin-2-yl)methyl)amino]phenyl}sulfonyl)-2-(1H-pyrrolo[2,3-b]pyridin-5-yloxy)-benzamide] | 2.2 nM | 1.31 nM | 105 nM
3 | Cc1cc(C(F)(F)F)ccc1C1=C(CN2CCN(c3ccc(C(=O)NS(=O)(=O)c4ccc(NC[C@H]5CCCOC5)c([N+](=O)[O-])c4)c(Oc4cnc5[nH]ccc5c4)c3)CC2)CCC(C)(C)C1 [Compound 15-1, (R)-4-(4-{[2-(2-methyl-4-trifluoromethylphenyl)-4,4-dimethylcyclohex-1-enyl]methyl}-piperazin-1-yl)-N-({3-nitro-4-[((tetrahydropyran-3-yl)methyl)amino]phenyl}sulfonyl)-2-(1H-pyrrolo[2,3-b]pyridin-5-yloxy)-benzamide] | – | 1.53 nM | 261 nM
4 | Cc1cc(C(F)(F)F)ccc1C1=C(CN2CCN(c3ccc(C(=O)NS(=O)(=O)c4ccc(NC[C@@H]5CCOC5)c([N+](=O)[O-])c4)c(Oc4cnc5[nH]ccc5c4)c3)CC2)CCC(C)(C)C1 [Compound 10-1, (S)-4-(4-{[2-(2-methyl-4-trifluoromethylphenyl)-4,4-dimethylcyclohex-1-enyl]methyl}-piperazin-1-yl)-N-({3-nitro-4-[((tetrahydrofuran-3-yl)methyl)amino]phenyl}sulfonyl)-2-(1H-pyrrolo[2,3-b]pyridin-5-yloxy)-benzamide] | – | 1.1 nM | 102 nM
